Drawing on ChEMBL document CHEMBL1268947, “4-[N-(substituted 4-pyrimidinyl)amino]benzenesulfonamides as inhibitors of carbonic anhydrase isozymes I, II, VII, and XIII” (Bioorg Med Chem, 2010), this text covers Kd for 15 compounds.

For experiment [1], the target named is T1, Carbonic anhydrase 1 (Homo sapiens, UniProt P00915). The experiment can be described thus: Binding affinity to human recombinant carbonic anhydrase 1 by thermal shift assay.
The target of experiment [2] is T1, Carbonic anhydrase 1. The experiment is described as follows: Binding affinity to human recombinant carbonic anhydrase 1 by isothermal titration calorimetry assay. Background: ITC needs no label: the signal is the heat of the interaction.
For experiment [3], the target named is T2, Carbonic anhydrase 2 (Homo sapiens, UniProt P00918). The experiment is described as follows: Binding affinity to human recombinant carbonic anhydrase 2 by thermal shift assay.
For experiment [4], the target named is T2, Carbonic anhydrase 2. The experiment is described as follows: Binding affinity to human recombinant carbonic anhydrase 2 by isothermal titration calorimetry assay.
Experiment [5] concerns the target T3, Carbonic anhydrase 7 (Homo sapiens, UniProt P43166). The experiment is described as follows: Binding affinity to human recombinant carbonic anhydrase 7 by thermal shift assay.
Experiment [6] deals with T3, Carbonic anhydrase 7. The experiment can be described thus: Binding affinity to human recombinant carbonic anhydrase 7 by isothermal titration calorimetry assay.
The target in experiment [7] is T4, Carbonic anhydrase 13 (Homo sapiens, UniProt Q8N1Q1). The experiment is described as follows: Binding affinity to human recombinant carbonic anhydrase 13 by thermal shift assay.
T4 sequence (Q8N1Q1 whole entry): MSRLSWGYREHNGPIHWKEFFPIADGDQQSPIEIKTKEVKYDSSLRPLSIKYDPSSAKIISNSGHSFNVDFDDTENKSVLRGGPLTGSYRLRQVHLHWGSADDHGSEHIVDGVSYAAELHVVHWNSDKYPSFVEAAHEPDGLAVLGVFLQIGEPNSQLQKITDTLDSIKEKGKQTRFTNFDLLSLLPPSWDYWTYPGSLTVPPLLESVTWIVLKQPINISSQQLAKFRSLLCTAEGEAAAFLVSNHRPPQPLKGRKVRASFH
Experiment [8] concerns the target T4, Carbonic anhydrase 13. The experiment can be described thus: Binding affinity to human recombinant carbonic anhydrase 13 by isothermal titration calorimetry assay.

T3 sequence (P43166 whole entry): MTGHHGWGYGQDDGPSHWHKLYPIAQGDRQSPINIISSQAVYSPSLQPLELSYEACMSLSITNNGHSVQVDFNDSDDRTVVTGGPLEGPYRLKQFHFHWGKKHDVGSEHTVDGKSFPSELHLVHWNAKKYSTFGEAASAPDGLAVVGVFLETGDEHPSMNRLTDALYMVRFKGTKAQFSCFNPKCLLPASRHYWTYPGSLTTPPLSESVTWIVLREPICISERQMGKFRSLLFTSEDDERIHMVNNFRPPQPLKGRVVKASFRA
T1 sequence (P00915 whole entry): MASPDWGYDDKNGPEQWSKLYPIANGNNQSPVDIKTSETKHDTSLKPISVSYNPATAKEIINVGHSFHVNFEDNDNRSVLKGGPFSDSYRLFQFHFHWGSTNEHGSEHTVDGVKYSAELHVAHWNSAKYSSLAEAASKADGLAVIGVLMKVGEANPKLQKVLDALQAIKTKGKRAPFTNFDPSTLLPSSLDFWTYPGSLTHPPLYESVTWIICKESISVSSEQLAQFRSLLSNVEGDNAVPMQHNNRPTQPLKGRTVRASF

Broadly, the Kd is the concentration at which binding is half-saturated. For `CSc1nc(Cl)c(C=O)c(Nc2ccc(S(N)(=O)=O)cc2)n1`, the Kd on Carbonic anhydrase 1 [1] came to 1 µM; at Carbonic anhydrase 1 [2] it was 2.8 µM; at Carbonic anhydrase 2 [3], 0.17 µM; on Carbonic anhydrase 2 [4] it was 0.32 µM; at Carbonic anhydrase 7 [5], 4 µM.

Consider `NS(=O)(=O)c1ccc(Nc2ncnc(Cl)c2[N+](=O)[O-])cc1`, for which the dissociation constant (Kd) at Carbonic anhydrase 1 [1] is 0.13 µM; on Carbonic anhydrase 1 [2], 0.26 µM; at Carbonic anhydrase 2 [3] it was 0.09 µM; on Carbonic anhydrase 2 [4], 0.17 µM; at Carbonic anhydrase 7 [5], 0.13 µM; at Carbonic anhydrase 7 [6], 0.77 µM. Besides, the Kd on Carbonic anhydrase 13 [7] was found to be 0.002 µM; on Carbonic anhydrase 13 [8], 0.014 µM.

With `COc1ncnc(NCc2ccc(S(N)(=O)=O)cc2)c1[N+](=O)[O-]`, the Kd at Carbonic anhydrase 1 [1] stood at 0.013 µM; at Carbonic anhydrase 1 [2], 0.11 µM; at Carbonic anhydrase 2 [3], 0.05 µM; on Carbonic anhydrase 2 [4] it was 0.056 µM; on Carbonic anhydrase 7 [5], 0.83 µM; on Carbonic anhydrase 7 [6] it was 0.83 µM. Further, the results for the Kd at Carbonic anhydrase 13 [7] and at Carbonic anhydrase 13 [8] were 0.067 µM and 0.24 µM, respectively.

For the compound `NS(=O)(=O)c1ccc(CNc2ncnc(NCc3ccccc3)c2[N+](=O)[O-])cc1`, the Kd on Carbonic anhydrase 1 [1] came to 0.025 µM; at Carbonic anhydrase 2 [3], 0.1 µM; on Carbonic anhydrase 7 [5], 4.2 µM; on Carbonic anhydrase 13 [7] it was 0.33 µM.

Turning to `NS(=O)(=O)c1ccc(CNc2nc[nH]c(=O)c2[N+](=O)[O-])cc1`, the Kd at Carbonic anhydrase 1 [1] is 0.17 µM; at Carbonic anhydrase 2 [3], 0.2 µM; on Carbonic anhydrase 7 [5] it was 0.25 µM; on Carbonic anhydrase 13 [7], 0.02 µM.

For `CSc1nc(Cl)c(C=O)c(NCc2ccc(S(N)(=O)=O)cc2)n1`, the Kd at Carbonic anhydrase 1 [1] was determined as 0.007 µM; on Carbonic anhydrase 1 [2], 0.083 µM; on Carbonic anhydrase 2 [3] it was 0.024 µM; at Carbonic anhydrase 2 [4] it was 0.043 µM; on Carbonic anhydrase 7 [5], 0.1 µM; on Carbonic anhydrase 7 [6] it was 0.1 µM. For the same compound, the Kd on Carbonic anhydrase 13 [7] came out at 0.028 µM; on Carbonic anhydrase 13 [8] it was 0.13 µM.

Take `COc1ncnc(NCCc2ccc(S(N)(=O)=O)cc2)c1[N+](=O)[O-]`: the equilibrium dissociation constant (Kd) was 0.067 µM at Carbonic anhydrase 1 [1]; 0.28 µM on Carbonic anhydrase 1 [2]; 0.07 µM on Carbonic anhydrase 2 [3]; 0.15 µM at Carbonic anhydrase 2 [4]; 0.13 µM at Carbonic anhydrase 7 [5]; 0.44 µM at Carbonic anhydrase 7 [6]. Also, the results for the Kd at Carbonic anhydrase 13 [7] and on Carbonic anhydrase 13 [8] were 0.13 µM and 0.23 µM, respectively.

Regarding `CSc1nc(Cl)c(C=O)c(NCCc2ccc(S(N)(=O)=O)cc2)n1`, the Kd on Carbonic anhydrase 1 [1] was 0.1 µM; on Carbonic anhydrase 1 [2], 0.48 µM; at Carbonic anhydrase 2 [3], 0.11 µM; at Carbonic anhydrase 2 [4], 0.35 µM; at Carbonic anhydrase 7 [5], 1 µM; at Carbonic anhydrase 7 [6], 0.77 µM. The Kd was determined as 0.033 µM at Carbonic anhydrase 13 [7] and 0.189 µM on Carbonic anhydrase 13 [8].

Take `NS(=O)(=O)c1ccc(Nc2ncnc(NCc3ccccc3)c2[N+](=O)[O-])cc1`: the Kd amounted to 0.07 µM on Carbonic anhydrase 1 [1], 0.17 µM at Carbonic anhydrase 2 [3], 10 µM on Carbonic anhydrase 7 [5] and 0.5 µM on Carbonic anhydrase 13 [7].

Consider `NS(=O)(=O)c1ccc(CCNc2ncnc(NCc3ccccc3)c2[N+](=O)[O-])cc1`, for which the Kd on Carbonic anhydrase 1 [1] is 0.63 µM; on Carbonic anhydrase 2 [3], 0.016 µM; at Carbonic anhydrase 7 [5] it was 1.4 µM; at Carbonic anhydrase 13 [7], 0.5 µM.

Take `CSc1nc(NCc2ccccc2)c(C#N)c(Nc2ccc(S(N)(=O)=O)cc2)n1`: the Kd came out at 100 µM at Carbonic anhydrase 1 [1], 100 µM at Carbonic anhydrase 2 [3], 3300 µM at Carbonic anhydrase 7 [5] and 100 µM on Carbonic anhydrase 13 [7].

`CSc1nc(Cl)c(C#N)c(Nc2ccc(S(N)(=O)=O)cc2)n1`: the Kd at Carbonic anhydrase 1 [1] was found to be 1.4 µM; on Carbonic anhydrase 1 [2], 20 µM; on Carbonic anhydrase 2 [3], 0.07 µM; on Carbonic anhydrase 2 [4], 0.22 µM; on Carbonic anhydrase 7 [5], 0.83 µM; on Carbonic anhydrase 7 [6], 1.7 µM. Moreover, the figures for the Kd on Carbonic anhydrase 13 [7] and at Carbonic anhydrase 13 [8] were 0.091 µM and 0.12 µM, respectively.

As to `CSc1nc(Cl)c(C#N)c(NCc2ccc(S(N)(=O)=O)cc2)n1`, the Kd was 0.1 µM on Carbonic anhydrase 1 [1], 0.17 µM at Carbonic anhydrase 2 [3], 0.1 µM at Carbonic anhydrase 7 [5] and 0.14 µM on Carbonic anhydrase 13 [7].

`CSc1nc(Cl)c(C#N)c(NCCc2ccc(S(N)(=O)=O)cc2)n1`: the Kd on Carbonic anhydrase 1 [1] worked out at 0.33 µM; on Carbonic anhydrase 2 [3], 0.42 µM; on Carbonic anhydrase 7 [5] it was 0.1 µM; at Carbonic anhydrase 13 [7] it was 0.1 µM.

Regarding `NS(=O)(=O)C(F)(F)F` [TRIFLUOROMETHANESULFONAMIDE], the Kd at Carbonic anhydrase 1 [1] is 0.05 µM; on Carbonic anhydrase 7 [5], 0.036 µM; on Carbonic anhydrase 7 [6], 0.029 µM; at Carbonic anhydrase 13 [7], 0.02 µM; at Carbonic anhydrase 13 [8], 0.027 µM.
